Reference: patent publication US9938276B2, “6,5-bicyclic octahydropyrrolopyridine orexin receptor antagonists” (Merck Sharp & Dohme Corp., priority 2014, dated 2018)

Columns and labels:
hOX1R = hOX1R (Homo sapiens, UniProt O43613); assay: hOX1R FLIPR Ca2+ flux assay; format: cell-based; conditions: CHO cells expressing the receptor; agonist 70 pM Ala-6,12 human orexin-A
human orexin-2 receptor = human orexin-2 receptor (Homo sapiens (Human), UniProt O43614); assay: hOX2R FLIPR Ca2+ flux assay; format: cell-based; conditions: CHO cells expressing the receptor; agonist 70 pM Ala-6,12 human orexin-A
Chain of human orexin-2 receptor (O43614 whole entry): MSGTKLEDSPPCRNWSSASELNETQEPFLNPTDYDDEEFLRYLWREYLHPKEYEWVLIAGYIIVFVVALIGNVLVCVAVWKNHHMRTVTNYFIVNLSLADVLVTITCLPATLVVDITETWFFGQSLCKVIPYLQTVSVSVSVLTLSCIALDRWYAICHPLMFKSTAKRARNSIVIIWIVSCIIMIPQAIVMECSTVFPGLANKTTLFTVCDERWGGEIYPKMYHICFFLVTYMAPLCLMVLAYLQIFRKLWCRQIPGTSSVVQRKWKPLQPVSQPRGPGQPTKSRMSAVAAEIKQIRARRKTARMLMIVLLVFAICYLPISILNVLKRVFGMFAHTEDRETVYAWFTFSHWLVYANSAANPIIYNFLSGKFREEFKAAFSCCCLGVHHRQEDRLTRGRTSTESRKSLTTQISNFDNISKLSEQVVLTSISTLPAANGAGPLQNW
Protocol: In a typical experiment the OX1 and OX2 receptor antagonistic activity of the compounds of the present invention was determined in accordance with the following experimental method. For intracellular calcium measurements, Chinese hamster ovary (CHO) cells expressing the rat orexin-1 receptor or the human orexin-2 receptor, are grown in Iscove's modified DMEM containing 2 mM L-glutamine, […], 1% hypoxanthine-thymidine supplement, 100 U/ml penicillin, 100 μg/ml streptomycin and 10% heat-inactivated fetal calf serum (FCS). The cells are seeded at 20,000 cells/well into Becton-Dickinson black 384-well clear bottom sterile plates coated with poly-D-lysine. All reagents were from GIBCO-Invitrogen Corp. The seeded plates are incubated overnight at 37° C. and 5% CO2. Ala-6,12 human orexin-A as the agonist is prepared as a 1 mM stock solution in 1% bovine serum albumin (BSA) and diluted in assay buffer (HBSS containing 20 mM HEPES, 0.1% BSA and 2.5 mM probenecid, pH7.4) for use in the assay at a final concentration of 70 pM. Test compounds are prepared as 10 mM stock solution in DMSO, then diluted in 384-well plates, first in DMSO, then assay buffer. On the day of the assay, cells are washed 3 times with 100 μl assay buffer and then incubated for 60 min (37° C., 5% CO2) in 60 μl assay buffer containing 1 μM Fluo-4AM ester, 0.02% pluronic acid, and 1% BSA. The dye loading solution is then aspirated and cells are washed 3 times with 100 μl assay buffer. 30 μl of that same buffer is left in each well. Within the Fluorescent Imaging Plate Reader (FLIPR, Molecular Devices), test compounds are added to the plate in a volume of 25 μl, incubated for 5 min and finally 25 μl of agonist is added. Fluorescence is measured for each well at 1 second intervals for 5 minutes and the height of each fluorescence peak is compared to the height of the fluorescence peak induced by 70 pM Ala-6,12 orexin-A with buffer in place of antagonist. […] Alternatively, compound potency can be assessed by a radioligand binding assay (described in Bergman et. al. Bioorg. Med. Chem. Lett. 2008, 18, 1425-1430) in which the inhibition constant (Ki) is determined in membranes prepared from CHO cells expressing either the OX1 or OX2 receptor. The intrinsic orexin receptor antagonist activity of a compound which may be used in the present invention may be determined by these assays.

SMILES: COc1ccnc(N2CC[C@@H]3CCN(C(=O)c4ccccc4-n4nccn4)C[C@@H]32)c1 [Example B3, (3aR, 7aR)-(2-(2H-1,2,3-triazol-2-yl)phenyl)(1-(4-methoxypyridin-2-yl)hexahydro-1H-pyrrolo[2,3-c]pyridin-6(2H)-yl)methanone]
- IC50 (hOX1R): ≥ 10 µM
- IC50 (human orexin-2 receptor): 1.01 µM

SMILES: CCOc1ccnc(N2CC[C@@H]3CCN(C(=O)c4ccccc4-n4nccn4)C[C@@H]32)c1 [Example B4, (3aR, 7aR)-(2-(2H-1,2,3-triazol-2-yl)phenyl)(1-(4-ethoxypyridin-2-yl)hexahydro-1H-pyrrolo[2,3-c]pyridin-6(2H)-yl)methanone]
- IC50 (hOX1R): ≥ 10 µM
- IC50 (human orexin-2 receptor): 0.766 µM

SMILES: N#Cc1cc(N2CC[C@@H]3CCN(C(=O)c4ccccc4-n4nccn4)C[C@@H]32)ncc1F [Example B5, 5-fluoro-2-[(3aR, 7aR)-6-{[2-(2H-1,2,3-triazol-2-yl)phenyl]carbonyl}octahydro-1H-pyrrolo[2,3-c]pyridin-1-yl]pyridine-4-carbonitrile]
- IC50 (hOX1R): ≥ 10 µM
- IC50 (human orexin-2 receptor): 4.72 µM

SMILES: N#Cc1cccc(N2CC[C@@H]3CCN(C(=O)c4ccccc4-n4nccn4)C[C@@H]32)c1 [Example B6, 3-((3aR, 7aR)-6-(2-(2H-1,2,3-triazol-2-yl)benzoyl)octahydro-1H-pyrrolo[2,3-c]pyridin-1-yl)benzonitrile]
- IC50 (hOX1R): ≥ 10 µM
- IC50 (human orexin-2 receptor): 1.73 µM

SMILES: O=C(c1ccccc1-n1nccn1)N1CC[C@H]2CCN(c3ncnc4[nH]ccc34)[C@H]2C1 [Example B7, (3aR, 7aR)-(2-(2H-1,2,3-triazol-2-yl)phenyl)(1-(7H-pyrrolo[2,3-d]pyrimidin-4-yl)hexahydro-1H-pyrrolo[2,3-c]pyridin-6(2H)-yl)methanone]
- IC50 (hOX1R): 10 µM
- IC50 (human orexin-2 receptor): 10 µM

SMILES: O=C(c1ccccc1-n1nccn1)N1CC[C@H]2CCN(c3nccc4ncccc34)[C@H]2C1 [Example B8, 5-[(3aR, 7aR)-6-{[2-(2H-1,2,3-triazol-2-yl)phenyl]carbonyl}octahydro-1H-pyrrolo[2,3-c]pyridin-1-yl]-1,6-naphthyridine]
- IC50 (hOX1R): 10 µM
- IC50 (human orexin-2 receptor): 2.52 µM

SMILES: O=C(c1ccccc1-n1nccn1)N1CC[C@H]2CCN(c3nccc4ccccc34)[C@H]2C1 [Example B9, (2-(2H-1,2,3-triazol-2-yl)phenyl)((3aR, 7aR)-1-(isoquinolin-1-yl)hexahydro-1H-pyrrolo[2,3-c]pyridin-6(2H)-yl)methanone]
- IC50 (hOX1R): 1.66 µM
- IC50 (human orexin-2 receptor): 0.0408 µM

SMILES: O=C(c1ccccc1-n1nccn1)N1CC[C@H]2CCN(c3ccnc4ccccc34)[C@H]2C1 [Example B10, (2-(2H-1,2,3-triazol-2-yl)phenyl)((3aR, 7aR)-1-(quinolin-4-yl)hexahydro-1H-pyrrolo[2,3-c]pyridin-6(2H)-yl)methanone]
- IC50 (hOX1R): 10 µM
- IC50 (human orexin-2 receptor): 3.43 µM

SMILES: COC(=O)c1csc(N2CC[C@@H]3CCN(C(=O)c4ccccc4-n4nccn4)C[C@@H]32)n1 [Example B11, methyl 2-((3aS, 7aR)-6-(2-(2H-1,2,3-triazol-2-yl)benzoyl)octahydro-1H-pyrrolo[2,3-c]pyridin-1-yl)thiazole-4-carboxylate]
- IC50 (hOX1R): 10 µM
- IC50 (human orexin-2 receptor): 10 µM

SMILES: O=C(c1ccccc1-n1nccn1)N1CC[C@H]2CCN(c3nccn4nccc34)[C@H]2C1 [Example B13, (3aR, 7aR)-6-(2-(2H-1,2,3-triazol-2-yl)benzoyl)-1-(pyrazolo[1,5-a]pyrazin-4-yl)ocathydro-1H-pyrrolo[2,3-c]pyridin-1-ium]
- IC50 (hOX1R): 10 µM
- IC50 (human orexin-2 receptor): 2.02 µM

SMILES: O=C(c1ccccc1-n1nccn1)N1CC[C@H]2CCN(c3nccn4ccnc34)[C@H]2C1 [Example B14, (2-(2H-1,2,3-triazol-2-yl)phenyl)((3aR, 7aR)-1-(imidazo[1,2-a]pyrazin-8-yl)hexahydro-1H-pyrrolo[2,3-c]pyridin-6(2H)-yl)methanone]
- IC50 (hOX1R): ≥ 10 µM
- IC50 (human orexin-2 receptor): 1.07 µM

SMILES: O=C(c1ccccc1-n1nccn1)N1CC[C@H]2CCN(c3ncnc4sccc34)[C@H]2C1 [Example B15, (2-(2H-1,2,3-triazol-2-yl)phenyl)((3aR, 7aR)-1-(thieno[2,3-d]pyrimidin-4-yl)hexahydro-1H-pyrrolo[2,3-c]pyridin-6(2H)-yl)methanone]
- IC50 (hOX1R): ≥ 10 µM
- IC50 (human orexin-2 receptor): ≥ 10 µM

SMILES: O=C(c1ccccc1-n1nccn1)N1CC[C@H]2CCN(c3nccc4cccnc34)[C@H]2C1 [Example B16, ((3aR, 7aR)-1-(1,7-naphthyridin-8-yl)hexahydro-1H-pyrrolo[2,3-c]pyridin-6(2H)-yl)(2-(2H-1,2,3-triazol-2-yl)phenyl)methanone]
- IC50 (hOX1R): ≥ 10 µM
- IC50 (human orexin-2 receptor): 0.75 µM

SMILES: O=C(c1ccccc1-n1nccn1)N1CC[C@H]2CCN(c3ccc4ccccc4n3)[C@H]2C1 [Example B18, 2-[(3aR, 7aR)-6-{[2-(2H-1,2,3-triazol-2-yl)phenyl]carbonyl}octahydro-1H-pyrrolo[2,3-c]pyridin-1-yl]quinoline]
- IC50 (hOX1R): 1.04 µM
- IC50 (human orexin-2 receptor): 1.53 µM

SMILES: O=C1OCc2c1ccnc2N1CC[C@@H]2CCN(C(=O)c3ccccc3-n3nccn3)C[C@@H]21 [Example B19, 4-[(3aR, 7aR)-6-{[2-(2H-1,2,3-triazol-2-yl)phenyl]carbonyl}octahydro-1H-pyrrolo[2,3-c]pyridin-1-yl]furo[3,4-c]pyridin-1(3H)-one]
- IC50 (hOX1R): 10 µM
- IC50 (human orexin-2 receptor): 1.01 µM

SMILES: Cc1cncc(N2CC[C@@H]3CCN(C(=O)c4ccccc4-n4nccn4)C[C@@H]32)n1 [Example B20, (3aR, 7aR)-1-(6-methylpyrazin-2-yl)-6-{[2-(2H-1,2,3-triazol-2-yl)phenyl]carbonyl}octahydro-1H-pyrrolo[2,3-c]pyridine]
- IC50 (hOX1R): ≥ 10 µM
- IC50 (human orexin-2 receptor): 2.08 µM

SMILES: Cc1ncc(N2CC[C@@H]3CCN(C(=O)c4ccccc4-n4nccn4)C[C@@H]32)nc1C [Example B21, (3aR, 7aR)-1-(5,6-dimethylpyrazin-2-yl)-6-{[2-(2H-1,2,3-triazol-2-yl)phenyl]carbonyl}octahydro-1H-pyrrolo[2,3-c]pyridine]
- IC50 (hOX1R): 10 µM
- IC50 (human orexin-2 receptor): 0.948 µM

SMILES: Cc1cnc(C)c(N2CC[C@@H]3CCN(C(=O)c4ccccc4-n4nccn4)C[C@@H]32)n1 [Example B22, (3aR, 7aR)-1-(3,6-dimethylpyrazin-2-yl)-6-{[2-(2H-1,2,3-triazol-2-yl)phenyl]carbonyl}octahydro-1H-pyrrolo[2,3-c]pyridine]
- IC50 (hOX1R): ≥ 10 µM
- IC50 (human orexin-2 receptor): 5.91 µM

SMILES: O=C(c1ccccc1-n1nccn1)N1CC[C@H]2CCN(c3cncc4ccccc34)[C@H]2C1 [Example B23, 4-[(3aR, 7aR)-6-{[2-(2H-1,2,3-triazol-2-yl)phenyl]carbonyl}octahydro-1H-pyrrolo[2,3-c]pyridin-1-yl]isoquinoline]
- IC50 (hOX1R): 10 µM
- IC50 (human orexin-2 receptor): 7.07 µM

SMILES: CC(C)(O)c1csc(N2CC[C@H]3CCN(C(=O)c4ccccc4-n4nccn4)C[C@@H]32)n1 [Example C1]
- IC50 (hOX1R): 10 µM
- IC50 (human orexin-2 receptor): 0.202 µM

SMILES: CC(C)(O)c1coc(N2CC[C@@H]3CCN(C(=O)c4ccccc4-n4nccn4)C[C@@H]32)n1 [Example C2]
- IC50 (hOX1R): 10 µM
- IC50 (human orexin-2 receptor): 0.342 µM

SMILES: CC(O)(c1cncc(N2CC[C@@H]3CCN(C(=O)c4ccccc4-n4nccn4)C[C@@H]32)n1)C(F)(F)F (stereo partly drawn) [Example C3, 1,1,1-trifluoro-2-{6-[(3aR, 7aR)-6-{[2-(2H-1,2,3-triazol-2-yl)phenyl]carbonyl}octahydro-1H-pyrrolo[2,3-c]pyridin-1-yl]pyrazin-2-yl}propan-2-ol]
- IC50 (hOX1R): ≥ 10 µM
- IC50 (human orexin-2 receptor): 3.34 µM
